# Results from the supplement of paper PMC11821682.
# Columns and labels:
# [1] = system: Danio rerio embryo; experiment: LEL embryonic photomotor response 24 hpf
# [2] = system: Danio rerio embryo; experiment: BMC10 any morphological effect or mortality at 120 hpf; higher = less toxic
# [3] = system: Danio rerio embryo; experiment: LEL larval photomotor response dark phase 120 hpf
# [4] = system: Danio rerio embryo; experiment: BMC10 mortality 24-120 hpf; higher = less toxic
# Experimental: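 ZBEscreen: dechorionated Tropical 5D zebrafish embryos were exposed from 4 hpf in 96-well plates (1% DMSO, 28 °C). All compounds were first tested at 100 µM; hits were retested at 0.005-100 µM. Morphology and mortality were scored at 120 hpf and fitted as BMC10 (3-parameter log-logistic, extra risk). The embryonic photomotor response at 24 hpf and the larval photomotor response at 120 hpf are given as lowest effect levels (K-S test, p<0.01). NA = not significant up to 100 µM; NT = not tested.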
# [5] = system: HL-60; experiment: Cell Health Index (toxicity pseudo-probability over dose series) (index 0-1); higher = more cytotoxic / cell stress;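 further: HL-60 cells exposed 4 h at 37 °C to ten threefold dilutions spanning 5 nM to 100 µM, multiparametric flow cytometry features scored by machine-learning classification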
compound,measurement,setting,value
COc1ccc(C(=O)O[C@H]2[C@H](O[C@@H]3[C@@H](OC(C)=O)[C@H](O[C@H]4C[C@H]5[C@@H]6CC=C7C[C@@H](O)CC[C@]7(C)[C@H]6CC[C@]5(C)[C@@]4(O)[C@H](C)C(=O)CCC(C)C)OC[C@@H]3O)OC[C@@H](O)[C@@H]2O)cc1 [OSW-1],LEL embryonic photomotor response 24 hpf,[1],> 100 µM
same,BMC10 any morphological effect or mortality,[2],0.03 µM
same,LEL larval photomotor response dark phase 120 hpf,[3],0.14 µM
same,BMC10 mortality 24-120 hpf,[4],0.03 µM
same,Cell Health Index,[5],0.822
COc1ccc2nc3cc(Cl)ccc3c(Nc3cc(CN4CCCC4)c(O)c(CN4CCCC4)c3)c2n1.O=P(O)(O)O.O=P(O)(O)O.O=P(O)(O)O.O=P(O)(O)O [Pyronaridine],LEL embryonic photomotor response 24 hpf,[1],3.7 µM
same,BMC10 any morphological effect or mortality,[2],1.18 µM
same,LEL larval photomotor response dark phase 120 hpf,[3],> 100 µM
same,BMC10 mortality 24-120 hpf,[4],3.65 µM
same,Cell Health Index,[5],0.929
COc1ccc2cc1Oc1ccc(cc1)C[C@H]1c3cc(c(OC)cc3CCN1C)Oc1c(O)c(OC)cc3c1[C@H](C2)N(C)CC3 [Fangchinoline],LEL embryonic photomotor response 24 hpf,[1],> 100 µM
same,BMC10 any morphological effect or mortality,[2],6.15 µM
same,LEL larval photomotor response dark phase 120 hpf,[3],> 100 µM
same,BMC10 mortality 24-120 hpf,[4],46.2 µM
same,Cell Health Index,[5],0.884
COc1ccc(CC(C)C(C)Cc2ccc(OC)c(OC)c2)cc1OC (stereo not given) [Terameprocol],LEL embryonic photomotor response 24 hpf,[1],3.7 µM
same,BMC10 any morphological effect or mortality,[2],3.12 µM
same,LEL larval photomotor response dark phase 120 hpf,[3],> 100 µM
same,BMC10 mortality 24-120 hpf,[4],24 µM
same,Cell Health Index,[5],0.506
CC(C)c1cccc(=O)c(O)c1 [Hinokitiol],LEL embryonic photomotor response 24 hpf,[1],33.3 µM
same,BMC10 any morphological effect or mortality,[2],3.83 µM
same,LEL larval photomotor response dark phase 120 hpf,[3],> 100 µM
same,BMC10 mortality 24-120 hpf,[4],10.1 µM
same,Cell Health Index,[5],0.335
O=C(N/N=C/c1ccc(O)c(O)c1)c1cc2ccccc2cc1O [Dynasore],LEL embryonic photomotor response 24 hpf,[1],33.3 µM
same,BMC10 any morphological effect or mortality,[2],10.2 µM
same,LEL larval photomotor response dark phase 120 hpf,[3],> 100 µM
same,BMC10 mortality 24-120 hpf,[4],7.92 µM
same,Cell Health Index,[5],0.48
CN1CC[C@H](c2c(O)cc(O)c3c(=O)cc(-c4ccccc4Cl)oc23)[C@H](O)C1.Cl [Flavopiridol],LEL embryonic photomotor response 24 hpf,[1],3.7 µM
same,BMC10 any morphological effect or mortality,[2],1.2 µM
same,LEL larval photomotor response dark phase 120 hpf,[3],> 100 µM
same,BMC10 mortality 24-120 hpf,[4],1.71 µM
same,Cell Health Index,[5],0.49
Cl.Cl.OCCOCCN1CCN(Cc2cccc(Oc3ccccc3)c2)CC1,LEL embryonic photomotor response 24 hpf,[1],33.3 µM
same,BMC10 any morphological effect or mortality,[2],36.5 µM
same,LEL larval photomotor response dark phase 120 hpf,[3],33.3 µM
same,BMC10 mortality 24-120 hpf,[4],43.1 µM
same,Cell Health Index,[5],0.385
COc1ccc2cc1Oc1ccc(cc1)C[C@H]1c3c(cc4c(c3Oc3cc5c(cc3OC)CCN(C)[C@@H]5C2)OCO4)CCN1C [Cepharanthine],LEL embryonic photomotor response 24 hpf,[1],> 100 µM
same,BMC10 any morphological effect or mortality,[2],10.5 µM
same,LEL larval photomotor response dark phase 120 hpf,[3],0.41 µM
same,BMC10 mortality 24-120 hpf,[4],10.9 µM
same,Cell Health Index,[5],0.911
O=C1C=CC2=C(C(OC/C=C(C)/C)=C(OC=C3)C3=C2)O1 [Imperatorin],LEL embryonic photomotor response 24 hpf,[1],3.7 µM
same,BMC10 any morphological effect or mortality,[2],2.05 µM
same,LEL larval photomotor response dark phase 120 hpf,[3],> 100 µM
same,BMC10 mortality 24-120 hpf,[4],10.8 µM
same,Cell Health Index,[5],0.307
CCC[C@H](NC(=O)/C(C#N)=C/c1cccc(Br)n1)c1ccccc1 [Degrasyn],LEL embryonic photomotor response 24 hpf,[1],1.23 µM
same,BMC10 any morphological effect or mortality,[2],0.411 µM
same,LEL larval photomotor response dark phase 120 hpf,[3],> 100 µM
same,BMC10 mortality 24-120 hpf,[4],1.92 µM
same,Cell Health Index,[5],0.909
CC[C@@]1([C@@H]2O[C@@H]([C@H]3O[C@@](O)(CO)[C@H](C)C[C@@H]3C)C[C@@H]2C)CC[C@H]([C@]2(C)CC[C@]3(C[C@H](O)[C@@H](C)[C@@H]([C@@H](C)[C@@H](OC)[C@H](C)C(=O)[O-])O3)O2)O1.[Na+] [Monensin],LEL embryonic photomotor response 24 hpf,[1],> 100 µM
same,BMC10 any morphological effect or mortality,[2],27.5 µM
same,LEL larval photomotor response dark phase 120 hpf,[3],0.005 µM
same,BMC10 mortality 24-120 hpf,[4],28.5 µM
same,Cell Health Index,[5],0.493
O[C@H]1CC[C@H](Nc2nc(-c3ccccc3)nc3[nH]ccc23)CC1 [Derenofylline],LEL embryonic photomotor response 24 hpf,[1],100 µM
same,BMC10 any morphological effect or mortality,[2],22.7 µM
same,LEL larval photomotor response dark phase 120 hpf,[3],> 100 µM
same,BMC10 mortality 24-120 hpf,[4],36.8 µM
same,Cell Health Index,[5],0.201
Cl.Clc1ccc(Cn2c(CN3CCCC3)nc3ccccc32)cc1 [Clemizole],LEL embryonic photomotor response 24 hpf,[1],3.7 µM
same,BMC10 any morphological effect or mortality,[2],4.04 µM
same,LEL larval photomotor response dark phase 120 hpf,[3],> 100 µM
same,BMC10 mortality 24-120 hpf,[4],10.1 µM
same,Cell Health Index,[5],0.453
CCOC(=O)c1c(CSc2ccccc2)n(C)c2cc(Br)c(O)c(CN(C)C)c12.Cl [Umifenovir],LEL embryonic photomotor response 24 hpf,[1],3.7 µM
same,BMC10 any morphological effect or mortality,[2],3.37 µM
same,LEL larval photomotor response dark phase 120 hpf,[3],> 100 µM
same,BMC10 mortality 24-120 hpf,[4],6.28 µM
same,Cell Health Index,[5],0.791
CC1(C)CC[C@]2(C(=O)O)CC[C@]3(C)C(=CC[C@@H]4[C@@]5(C)CC[C@H](O)C(C)(C)[C@@H]5CC[C@]43C)[C@@H]2C1 [Oleanolic acid],LEL embryonic photomotor response 24 hpf,[1],> 100 µM
same,BMC10 any morphological effect or mortality,[2],3.43 µM
same,LEL larval photomotor response dark phase 120 hpf,[3],> 100 µM
same,BMC10 mortality 24-120 hpf,[4],8.42 µM
same,Cell Health Index,[5],0.354
COc1ccc(-c2oc3cc(OC)c(OC)c(O)c3c(=O)c2OC)cc1O [Casticin],LEL embryonic photomotor response 24 hpf,[1],3.7 µM
same,BMC10 any morphological effect or mortality,[2],1.26 µM
same,LEL larval photomotor response dark phase 120 hpf,[3],> 100 µM
same,BMC10 mortality 24-120 hpf,[4],1.28 µM
same,Cell Health Index,[5],0.355
Cc1ccc2c(c1)c1c3n2CCNC3CCC1 (stereo not given) [Pirlindole],LEL embryonic photomotor response 24 hpf,[1],33.3 µM
same,BMC10 any morphological effect or mortality,[2],5.42 µM
same,LEL larval photomotor response dark phase 120 hpf,[3],> 100 µM
same,BMC10 mortality 24-120 hpf,[4],12 µM
same,Cell Health Index,[5],0.298
Cc1c(-c2ccc(-c3ccccc3F)cc2)nc2ccc(F)cc2c1C(=O)O [Brequinar],LEL embryonic photomotor response 24 hpf,[1],11.1 µM
same,BMC10 any morphological effect or mortality,[2],0.331 µM
same,LEL larval photomotor response dark phase 120 hpf,[3],> 100 µM
same,BMC10 mortality 24-120 hpf,[4],1.41 µM
same,Cell Health Index,[5],0.332
CCC(C)n1ncn(-c2ccc(N3CCN(c4ccc(OC[C@H]5CO[C@](Cn6cncn6)(c6ccc(Cl)cc6Cl)O5)cc4)CC3)cc2)c1=O (stereo not given in full) [Itraconazole],LEL embryonic photomotor response 24 hpf,[1],3.7 µM
same,BMC10 any morphological effect or mortality,[2],0.113 µM
same,LEL larval photomotor response dark phase 120 hpf,[3],0.41 µM
same,BMC10 mortality 24-120 hpf,[4],0.276 µM
same,Cell Health Index,[5],0.382
O=c1cc(-c2cccc3c2Sc2ccccc2S3)oc(N2CCOCC2)c1,LEL embryonic photomotor response 24 hpf,[1],11.1 µM
same,BMC10 any morphological effect or mortality,[2],5.74 µM
same,LEL larval photomotor response dark phase 120 hpf,[3],> 100 µM
same,BMC10 mortality 24-120 hpf,[4],9.46 µM
same,Cell Health Index,[5],0.663
N#CC(=C(/N)Sc1ccccc1N)/C(C#N)=C(\N)Sc1ccccc1N [U0126],LEL embryonic photomotor response 24 hpf,[1],33.3 µM
same,BMC10 any morphological effect or mortality,[2],4.02 µM
same,LEL larval photomotor response dark phase 120 hpf,[3],> 100 µM
same,BMC10 mortality 24-120 hpf,[4],11.5 µM
same,Cell Health Index,[5],0.558
COc1c(O)cc2oc(-c3ccccc3)cc(=O)c2c1O [Oroxylin A],LEL embryonic photomotor response 24 hpf,[1],> 100 µM
same,BMC10 any morphological effect or mortality,[2],27.2 µM
same,LEL larval photomotor response dark phase 120 hpf,[3],> 100 µM
same,BMC10 mortality 24-120 hpf,[4],64.9 µM
same,Cell Health Index,[5],0.234
C[C@H]1[C@@H](O)O[C@@H]2O[C@@]3(C)CC[C@H]4[C@H](C)CC[C@@H]1[C@@]24OO3 [Dihydroartemisinin],LEL embryonic photomotor response 24 hpf,[1],> 100 µM
same,BMC10 any morphological effect or mortality,[2],2.99 µM
same,LEL larval photomotor response dark phase 120 hpf,[3],1.23 µM
same,BMC10 mortality 24-120 hpf,[4],2.11 µM
same,Cell Health Index,[5],0.215
Cc1cnc(-c2ccccc2C(C)C)nc1NCc1ccc(-n2ccnn2)cc1 [ML-323],LEL embryonic photomotor response 24 hpf,[1],11.1 µM
same,BMC10 any morphological effect or mortality,[2],9.11 µM
same,LEL larval photomotor response dark phase 120 hpf,[3],> 100 µM
same,BMC10 mortality 24-120 hpf,[4],10.5 µM
same,Cell Health Index,[5],0.577
CC(=O)O[C@]1(C(C)=O)CC[C@H]2[C@@H]3C=C(C)C4=CC(=O)CC[C@]4(C)[C@H]3CC[C@@]21C [Megestryl acetate],LEL embryonic photomotor response 24 hpf,[1],11.1 µM
same,BMC10 any morphological effect or mortality,[2],4.08 µM
same,LEL larval photomotor response dark phase 120 hpf,[3],> 100 µM
same,BMC10 mortality 24-120 hpf,[4],9.53 µM
same,Cell Health Index,[5],0.449
COc1cccc2c1C(=O)c1c(O)c3c(c(O)c1C2=O)C[C@@](O)(C(=O)CO)C[C@@H]3O[C@H]1C[C@H](N)[C@H](O)[C@H](C)O1.Cl [Doxorubicin],LEL embryonic photomotor response 24 hpf,[1],11.1 µM
same,BMC10 any morphological effect or mortality,[2],3.18 µM
same,LEL larval photomotor response dark phase 120 hpf,[3],> 100 µM
same,BMC10 mortality 24-120 hpf,[4],7.71 µM
same,Cell Health Index,[5],0.852
CC[C@H](C)[C@H]1O[C@]2(CC[C@@H]1C)C[C@@H]1C[C@@H](C/C=C(\C)[C@@H](O[C@H]3C[C@H](OC)[C@@H](O[C@H]4C[C@H](OC)[C@@H](O)[C@H](C)O4)[C@H](C)O3)[C@@H](C)/C=C/C=C3\CO[C@@H]4[C@H](O)C(C)=C[C@@H](C(=O)O1)[C@]34O)O2 [Ivermectin B1a],LEL embryonic photomotor response 24 hpf,[1],1.23 µM
same,BMC10 any morphological effect or mortality,[2],0.156 µM
same,LEL larval photomotor response dark phase 120 hpf,[3],0.41 µM
same,BMC10 mortality 24-120 hpf,[4],4.04 µM
same,Cell Health Index,[5],0.687
C[C@H]1O[C@@H](O[C@H]2CC[C@@]3(C)[C@@H](CC[C@]4(C)[C@@H]3C=C[C@]35OC[C@@]6(CCC(C)(C)C[C@H]63)[C@@H](O)C[C@]54C)[C@]2(C)CO)[C@H](O)[C@@H](O[C@@H]2O[C@H](CO)[C@@H](O)[C@H](O)[C@H]2O)[C@H]1O [Saikosaponin A],LEL embryonic photomotor response 24 hpf,[1],> 100 µM
same,BMC10 any morphological effect or mortality,[2],> 100 µM
same,LEL larval photomotor response dark phase 120 hpf,[3],> 100 µM
same,BMC10 mortality 24-120 hpf,[4],1.46 µM
same,Cell Health Index,[5],0.959
